Source: US7504226B2, “Methods relating to treatment of atherosclerosis” (Cambridge Theranostics Ltd., priority 2001, dated 2009)
Several values for one entry are separate records, joined by “and”; a condition that tells them apart may be missing. Equal entries are not always repeated. Entries after “also recorded” stand apart in the source; their conditions may differ. Where two headings read alike, the source gives them in different places. Marks after values point to notes of the source that are not given here.

Columns and labels:
anti-Chlamydia abzymes [1] = type: biochemical, human; set-up: key to In-vitro Inhibition: + = inhibition; − = no inhibition; conditions: for In-vitro Inhibition: abzyme activity, metal chelators; for Anti-Abzyme activity: control 21.7
anti-Chlamydia abzymes [2] = type: in vivo, human; conditions: for Anti-Chlamydia abzyme activity: individual patients (last line: mean); for individuals positive for abzymes / individuals positive for abzymes (fraction) / abzyme activity of individuals reporting taking aspirin: + aspirin; for Anti-Chlamydia abzymes activity: Table 27 group summary
anti-Chlamydia IgG = type: in vivo, human; conditions: immuno-fluorescent assay, group summary
[3] = tested on: patients with ischaemic heart disease; test: Severity of angina pectoris by modified Rose-Blackburn Questionnaire; type: in vivo, human; set-up: Score by modified Rose-Blackburn Questionnaire / Rose Blackthorn Score Day 0: scale not given here; conditions: for Score by modified Rose-Blackburn Questionnaire: individual patients (last line of each group: mean)
From the text: The progression of the clinical condition of the patients was monitored by the use of the modified Bruce Protocol for treadmill exercise/stress ECG testing and on the Rose-Blackburn Questionnaire (Cardiovascular Survey Methods. WHO, Geneva, 1968).

patients with angina = test: Clinical condition of angina patients treated with anti-microbial agent; type: in vivo, human; conditions: for Clinical condition: individual patients; for tablets of nitroglycerine daily: patient 5
[4] = human, in vivo
lesion IgG = type: biochemical, human
anti-Chlamydia abzymes [5] = type: biochemical, human
[6] = IHD patients negative for anti-Chlamydia IgG, individual patients
[7] = Chlamydia treated with 1% detergents or 10% solution of DMSO

CC(=O)Oc1ccccc1C(=O)O [Aspirin, acetylsalicylic acid]
Result (inhibition of abzymes) (anti-Chlamydia abzymes [1]; 10 μM of each agent): Positive
In-vitro Inhibition (anti-Chlamydia abzymes [1]): +
Anti-Chlamydia abzyme activity (anti-Chlamydia abzymes [2]; Therapy Group D, IHD, aspirin 250 mg daily, before treatment): 103 μM MDA/ml and 253 μM MDA/ml and 178 μM MDA/ml
Anti-Chlamydia abzyme activity (anti-Chlamydia abzymes [2]; Therapy Group D, 60 days after the start of treatment): 63 μM MDA/ml and 103 μM MDA/ml and 83.2 μM MDA/ml
Level of activity of anti-Chlamydia abzymes (anti-Chlamydia abzymes [2]; individual CHD patients, 7 days after starting to take 250 mg of aspirin daily): undetectably low level and 20 μM MDA/ml and 0 μM MDA/ml
Level of activity of anti-Chlamydia abzymes (anti-Chlamydia abzymes [2]; individual CHD patients, before taking aspirin): 100 μM MDA/ml and 45 μM MDA/ml (2×)
inhibition of the abzyme activity (anti-Chlamydia abzymes [2]; one CHD patient, after a week of 250 mg daily): 5 fold
Level of activity of anti-Chlamydia abzymes (anti-Chlamydia abzymes [2]; patient F, Silent Myocardial Ischaemia, aspirin intake 250 mg daily): 10 μM MDA/ml
Level of activity of anti-Chlamydia abzymes (anti-Chlamydia abzymes [2]; patient F, 7 days after re-starting to take 250 mg aspirin daily): 20 μM MDA/ml
Level of activity of anti-Chlamydia abzymes (anti-Chlamydia abzymes [2]; patient F, after stopping taking aspirin for 7 days): 65 μM MDA/ml
individuals positive for abzymes (anti-Chlamydia abzymes [2]; stable angina class I): 17%
individuals positive for abzymes (fraction) (anti-Chlamydia abzymes [2]; stable angina class I): 1/6
abzyme activity of individuals reporting taking aspirin (anti-Chlamydia abzymes [2]; stable angina class I, individuals (r25: mean, n = 6)): 0 (3×) and 10 and 10.0 and 5 and 45
individuals positive for abzymes (anti-Chlamydia abzymes [2]; stable angina class II): 27%
individuals positive for abzymes (fraction) (anti-Chlamydia abzymes [2]; stable angina class II): 4/15
abzyme activity of individuals reporting taking aspirin (anti-Chlamydia abzymes [2]; stable angina class II, individuals (r25: mean, n = 15)): 10 (2×) and 0 (4×) and 5 (4×) and 25 and 22.5 and 3.3 and 16.7 and 9.2 and 30
individuals positive for abzymes (anti-Chlamydia abzymes [2]; stable angina class III): 60%
individuals positive for abzymes (fraction) (anti-Chlamydia abzymes [2]; stable angina class III): 6/10
abzyme activity of individuals reporting taking aspirin (anti-Chlamydia abzymes [2]; stable angina class III, individuals (r25: mean, n = 10)): 0 (3×) and 5 and 35 and 15 and 30 and 105 and 25.5 and 20 and 45
individuals positive for abzymes (anti-Chlamydia abzymes [2]; unstable angina IV): 86%
individuals positive for abzymes (fraction) (anti-Chlamydia abzymes [2]; unstable angina IV): 6/7
abzyme activity of individuals reporting taking aspirin (anti-Chlamydia abzymes [2]; unstable angina IV, individuals (r25: mean, n = 7)): 0 and 37 and 90 and 100 and 86.7 and 180 and 130 and 70

CC[C@H]1OC(=O)[C@H](C)[C@@H](O[C@H]2C[C@@](C)(OC)[C@@H](O)[C@H](C)O2)[C@H](C)[C@@H](O[C@@H]2O[C@H](C)C[C@H](N(C)C)[C@H]2O)[C@](C)(O)C[C@@H](C)CN(C)[C@H](C)[C@@H](O)[C@]1(C)O [Azithromycin]
Abzyme activity Day 0 (anti-Chlamydia abzymes [2]; [6]): 15 and 90 and 80 and 40
Abzyme activity Day 60 (anti-Chlamydia abzymes [2]; [6]): 6.7 (2×) and 3.3 and 0
Anti-Chlamydia abzyme activity (anti-Chlamydia abzymes [2]; Table 15, 15 days after the start of the treatment): 60 μM MDA/ml and 0 μM MDA/ml (3×) and 8.3 μM MDA/ml and 6.7 μM MDA/ml (3×) and 33 μM MDA/ml and 75 μM MDA/ml and 19.6 μM MDA/ml
Anti-Chlamydia abzyme activity (anti-Chlamydia abzymes [2]; Table 15, 30 days after the start of the treatment): 37 μM MDA/ml and 0 μM MDA/ml (3×) and 28 μM MDA/ml and 3.3 μM MDA/ml (2×) and 10 μM MDA/ml and 78 μM MDA/ml and 17.7 μM MDA/ml
Anti-Chlamydia abzyme activity (anti-Chlamydia abzymes [2]; Table 15, stable angina, 500 mg once per day, before treatment): 40 μM MDA/ml (2×) and 50 μM MDA/ml and 15 μM MDA/ml and 10 μM MDA/ml and 35 μM MDA/ml and 85 μM MDA/ml and 30 μM MDA/ml (2×) and 45.9 μM MDA/ml and 90 μM MDA/ml and 80 μM MDA/ml
Anti-Chlamydia abzymes activity (anti-Chlamydia abzymes [2]; 60 days after treatment): 1.6 ± 0.89 ^ μM/MDA/ml
Anti-Chlamydia abzymes activity (anti-Chlamydia abzymes [2]; before treatment): 47.5 ± 8.96 μM/MDA/ml
Anti-Chlamydia abzyme activity (anti-Chlamydia abzymes [2]; Therapy Group A, IHD, 500 mg daily, before treatment): 90 μM MDA/ml and 80 μM MDA/ml and 40 μM MDA/ml (2×) and 50 μM MDA/ml and 15 μM MDA/ml and 28 μM MDA/ml and 35 μM MDA/ml and 85 μM MDA/ml and 30 μM MDA/ml (2×) and 47.5 μM MDA/ml
Anti-Chlamydia abzyme activity (anti-Chlamydia abzymes [2]; Therapy Group A, 15 days after the start of treatment): 6.7 μM MDA/ml (3×) and 0 μM MDA/ml (3×) and 60* μM MDA/ml and 8.3 μM MDA/ml and 33 μM MDA/ml and 75* μM MDA/ml and 52* μM MDA/ml and 22.5 μM MDA/ml
Anti-Chlamydia abzyme activity (anti-Chlamydia abzymes [2]; Therapy Group A, 30 days after the start of treatment): 78** μM MDA/ml and 0 μM MDA/ml (3×) and 37* μM MDA/ml and 28** μM MDA/ml and 3.3 μM MDA/ml (2×) and 10 μM MDA/ml (2×) and 78* μM MDA/ml and 22.5 μM MDA/ml
Anti-Chlamydia abzyme activity (anti-Chlamydia abzymes [2]; Therapy Group A, 45 days after the start of treatment): 17 μM MDA/ml and 0 μM MDA/ml (5×) and 20* μM MDA/ml and 43* μM MDA/ml and 3.3 μM MDA/ml (2×) and 5.0 μM MDA/ml and 7.4 μM MDA/ml
Anti-Chlamydia abzyme activity (anti-Chlamydia abzymes [2]; Therapy Group A, 60 days after the start of treatment): 3.3 μM MDA/ml and 6.7 μM MDA/ml (2×) and 0 μM MDA/ml (7×) and 0.5 μM MDA/ml and 1.6 μM MDA/ml
Anti-Chlamydia IgG (anti-Chlamydia IgG; 60 days after treatment): 0 (titers)^−1
Anti-Chlamydia IgG (anti-Chlamydia IgG; before treatment): 43.6 (titers)^−1
Rose Blackthorn Score Day 0 [3, 6]: 21 and 22 and 12 and 19
Clinical Status modified Rose G., Blackburn H. Questionnaire ([3]; group summary, before treatment): 19.4 ± 1.79
Score by modified Rose-Blackburn Questionnaire ([3]; 60 days after start of the treatment): 19 and 10 and 13 and 16 and 18 and 15 (2×) and 8 and 11 and 17 (2×)
Score by modified Rose-Blackburn Questionnaire ([3]; before treatment): 22 and 12 and 19 and 23 and 21 and 25 (3×) and 16 and 10 and 15 and 19.4 ± 1.79
Clinical condition (patients with angina; after 15 days of treatment): angina class II;; also recorded: Stable condition;
Clinical condition (patients with angina; before treatment): angina class III;; also recorded: Unstable angina;
tablets of nitroglycerine daily (patients with angina; after 15 days of treatment): 5 tablets of nitroglycerine
tablets of nitroglycerine daily (patients with angina; before treatment): 10 tablets of
adverse reactions [4]: No adverse reactions

C[S+](C)[O-] [DMSO]
Level of MDA production by 0.82 μg of lesion IgG (lesion IgG; LDL 480 μg of protein, +1% agent, control 0.49 ± 0.023): 0 µM
development of lipid oxidation reaction (anti-Chlamydia abzymes [5]; [7]): completely abrogated

O=C(O)CN(CCN(CC(=O)O)CC(=O)O)CCN(CC(=O)O)CC(=O)O [DTPA]
Result (inhibition of abzymes) (anti-Chlamydia abzymes [1]; 10 μM of each agent): Negative
In-vitro Inhibition (anti-Chlamydia abzymes [1]): −

O=[N+]([O-])OCC(CO[N+](=O)[O-])O[N+](=O)[O-] [Glyceryl Trinitrate]
Anti-Abzyme activity (anti-Chlamydia abzymes [1]; 4.4 μM): 0 μM MDA/ml
Anti-Abzyme activity (anti-Chlamydia abzymes [1]; 22 μM): 0 μM MDA/ml
Anti-Abzyme activity (anti-Chlamydia abzymes [1]; 44 μM): 0 μM MDA/ml
Anti-Abzyme activity (anti-Chlamydia abzymes [1]; 220 μM): 0 μM MDA/ml

O=[N+]([O-])O[C@H]1CO[C@H]2[C@@H]1OC[C@H]2O[N+](=O)[O-] [Isosorbide Dinitrate]
Anti-Abzyme activity (anti-Chlamydia abzymes [1]; 42 μM): 0 μM MDA/ml
Anti-Abzyme activity (anti-Chlamydia abzymes [1]; 211 μM): 0 μM MDA/ml

[N-]=[N+]=[N-].[Na+] [NaN3]
Result (inhibition of abzymes) (anti-Chlamydia abzymes [1]): Positive

CC(C)(S)[C@@H](N)C(=O)O [Penicillamine]
Result (inhibition of abzymes) (anti-Chlamydia abzymes [1]; 10 μM of each agent): Positive
In-vitro Inhibition (anti-Chlamydia abzymes [1]): +

O=C(O)c1ccccn1 [Picolinic acid]
Result (inhibition of abzymes) (anti-Chlamydia abzymes [1]; 10 μM of each agent): Positive
In-vitro Inhibition (anti-Chlamydia abzymes [1]): +

CCCCCCCCCCCCOS(=O)(=O)[O-].[Na+] [SDS]
lipid oxidising reaction in the test system (anti-Chlamydia abzymes [5]): no lipid oxidising reaction

N.N.O=S(=O)(O)O [ammonium sulphate]
lipid oxidising reaction in the test system (anti-Chlamydia abzymes [5]): no lipid oxidising reaction

O=C(O)c1ccccc1 [benzoic acid]
Level of MDA production by 0.82 μg of lesion IgG (lesion IgG): 0 µM

C=O [formalin]
lipid oxidising reaction in the test system (anti-Chlamydia abzymes [5]): no lipid oxidising reaction

O=C[O-].[Na+] [sodium formate]
Level of MDA production by 0.82 μg of lesion IgG (lesion IgG; LDL 480 μg of protein, +0.1 M agent, control 0.49 ± 0.023): 0 µM

octylphenoxypoly(ethyleneoxy)ethanol [IGEPAL CA-630]
development of lipid oxidation reaction (anti-Chlamydia abzymes [5]; [7]): completely abrogated
oxidation of the lipids in the bacteria by the extracted abzymes (anti-Chlamydia abzymes [5]; Chlamydia treated with non-ionic detergent): abolished

polyoxyethylene Octyl phenyl ether [TRITON X-100]
development of lipid oxidation reaction (anti-Chlamydia abzymes [5]): completely abrogated
oxidation of the lipids in the bacteria by the extracted abzymes (anti-Chlamydia abzymes [5]): abolished
